The values that follow come from patent US8907107B2 (Hae Therapeutics Limited, priority 2009, dated 2014).

Marks after values point to notes of the source that are not given here.

The nature of data set [1]: UV-visible absorption spectra. It is filed as physicochemical. The following applies: for λabs: longest-wavelength band, from compound data.
Another data set is described as follows: physchem. The source says:
A trace pH=6.0, B trace pH=9.0. Excitation at 640 nm, slit widths 10 nm, 5×10^−7 M in water/CrEL.
FIG. 6. […] Excitation at 640 nm, slit widths 20 nm, 5×10^−7 M in water/CrEL. INaCl=150 mmol/L.

The subject of data set [2] is MDA-MB-231 cells. Kind of data set: Confocal imaging of cell internalization and intracellular on/off switching of 8a. It is filed as cell-based. The source says:
The difference in averaged whole cell red fluorescence taken from off-cells to on-cells was six-fold (FIG. 7).

Data set [3] in a line: Fluorescence emission spectra and quantum yield. Type of data set: physicochemical. As to conditions: for λmax emiss.: 5 × 10^−7 M, excitation 640 nm, slit widths 5 nm.
Data set [4] deals with MDA-MB-231 cells. Kind of data set: Cellular uptake of 16 and 17, CLSM imaging. The following applies: 5 μM; for cellular uptake: 1 hour incubation, DMEM; for subcellular localisation: 1 hour, 3-D reconstruction, DAPI co-staining. It is filed as cell-based. The protocol:
These spectroscopic properties correlate perfectly to the optical requirements of commercially available confocal laser scanning microscopy (CLSM) instruments and small animal optical imaging instruments. Cellular uptake of DMEM solutions of 16 and 17 were utilised to illustrate their potential for in vitro imaging. Compounds 16 and 17 were incubated with MDA-MB-231 cells for 1 hour at 5 μM concentration and the excess dye was removed by washing with PBS before visualisation.
(§1) MDA-MB-231 cells were seeded into a 8 well chambered microscopy slide and they were grown overnight in DMEM media at 37° C. in the presence of 5% CO2. The media was then removed and 16 and 17 (5 μM) was added, followed by an incubation period of 1 hour in the dark. Cells were then washed with PBS to remove excess compound. Prior to visualization, cells were fixed in 3.7% formaldehyde solution, co-stained with DAPI and a coverslip was mounted onto the microscopy slide. In a similar way, E. coli cells were incubated with 21 (4 μM) in the dark for 10 minutes. The bacterial cells were washed with PBS and An aliquot of this solution was suspended onto a microscopy slide and allowed to dry. Before imaging, a coverslip was mounted onto the microscopy slide. Images were obtained using an LSM510 META confocal laser scanning microscope equipped with 63× numerical aperture 1.4 objective. DAPI was excited at 364 nm and detected with a band-pass filter 385-470 nm, whilst 16, 17 and 21 were excited at 633 nm and their fluorescence was detected through a 650 nm long-pass filter.

The test system of the next data set is E. coli cells. The experiment in a line: Bacterial cell uptake of 21, confocal imaging. Type of data set: cell-based, Escherichia coli. The following applies: gram-negative; 4 μM, 10 minutes. The protocol:
as §1
(§2) It was envisaged that the bis-cationic nature of sensitizer 21 would be optimal for uptake into prokaryotic cells thereby broadening their utility. […] Confocal imaging confirmed the binding of 21 to both gram-positive and negative bacterial cells (FIGS. 28a, 28b).

For a further data set, the system named is S. aureus cells. The experiment in a line: Bacterial cell uptake of 21, confocal imaging. It is filed as cell-based, Staphylococcus aureus. As to conditions: gram-positive; 4 μM, 10 minutes. As for the experimental part:
as §1, §2

[5] abbreviates: 730 nm, excitation 640 nm, 5×10^−7 M in water/CrEL.

As for `OC[C@H]1O[C@@H](n2cc(COc3ccc(-c4cc(-c5ccccc5)c5n4[B-](F)(F)[N+]4=C(c6ccc(O)cc6)C=C(c6ccccc6)C4=N5)cc3)nn2)[C@H](O)[C@@H](O)[C@H]1O` [Compound 8a], in data set [1] (CH3OH, 5 × 10^−6 M), the λmax abs. is reported as 687 nm. The pKa in the data set “physchem” was 6.9. In addition, in “physchem” (setting [5]), the “fluorescence intensity difference between pH 6.6 and 8” value was 6 fold; the “fluorescence intensity difference from pH 6.1 to 7.2” value is recorded as “greater than 2 fold”. For the same molecule, the “intracellular emission after addition of basic buffer” value in the data set with MDA-MB-231 cells [2] (aqueous carbonate buffer pH 8.0) is reported as “almost complete quenching”. The “subcellular localisation of red emission” value in the data set on MDA-MB-231 cells [2] (incubation 1 h, DAPI co-staining) is listed as “localised to the cytosol”. In addition, the “intracellular emission after addition of acidic buffer” value in the data set with MDA-MB-231 cells [2] (pH 6.6 buffer) is “re-established”. In addition, the “difference in averaged whole cell red fluorescence from off-cells to on-cells” value in the data set on MDA-MB-231 cells [2] (pH 8.0 versus pH 6.6 buffer) is listed as “six-fold”.

In data set [1] (CH3OH, 5 × 10^−6 M), `O=C(O)CCCn1cc(COc2ccc(C3=NC(=Nc4[nH]c(-c5ccc(O)cc5)cc4-c4ccccc4)C(c4ccccc4)=C3)cc2)nn1` [Compound 8b, 4-[4-(4-[5-[5-(4-Hydroxyphenyl)-3-phenyl-1H-pyrrol-2-ylimino]-4-phenyl-5H-pyrrol-2-yl]-phenoxymethyl)-[1,2,3]triazol-1-yl]butyric acid] came in with a λmax abs. of 687 nm.

`CC(C)(C)OC(=O)NCCn1cc(COc2ccc(C3=NC(=Nc4[nH]c(-c5ccc(O)cc5)cc4-c4ccccc4)C(c4ccccc4)=C3)cc2)nn1` [Compound 8c, {2-[4-(4-{5-[5-(4-Hydroxyphenyl)-3-phenyl-1H-pyrrol-2-ylimino]-4-phenyl-5H-pyrrol-2-yl}-phenoxymethyl)-[1,2,3]triazol-1-yl]ethyl}carbamic acid t-butyl ester] returned a λmax abs. in data set [1] (CH3OH, 5 × 10^−6 M) of 687 nm.

As for `COCCOCCOCCOc1ccc(-c2cc(-c3ccccc3)c3n2[B-](F)(F)[N+]2=C(c4ccc(OCCNC(=O)OC(C)(C)C)cc4)C=C(c4ccccc4)C2=N3)cc1` [Compound 9], the “ε×10^−3” value in data set [1] (CHCl3, at 689 nm) is 87.1. This molecule also displayed a λabs in data set [1] (CHCl3) of 689 nm. Further, the “fluorescence quantum yield Φf” value in data set [3] (CHCl3, 1 as standard) is recorded as 0.36. Further, in data set [3] (CHCl3, from compound data), the λemiss stood at 717 nm. Further, the Φf in data set [3] (ethanol, 1 used as standard) came out at 0.23. In data set [3] (ethanol), this molecule showed a λmax emiss. of 714 nm.

As for `O=C(O)COc1ccc(C2=[N+]3C(=Nc4c(-c5ccccc5)cc(-c5ccc(OCC(=O)O)cc5)n4[B-]3(F)F)C(c3ccccc3)=C2)cc1` [Compound 16], the λmax abs. was 681 nm in data set [1] (CHCl3, 1 × 10^−6 M); 694 nm in data set [1] (DMEM, 1 × 10^−6 M); 681 nm in data set [1] (MeOH, 1 × 10^−6 M); 692 nm in data set [1] (PBS/BSA, 1 × 10^−6 M). The Φf in data set [3] (CHCl3) was found to be 0.30. The λmax emiss. is given as 722 nm in data set [3] (DMEM), 715 nm in data set [3] (MeOH) and 718 nm in data set [3] (PBS/BSA (4×10^−4 M BSA)). Moreover, the cellular uptake entry with MDA-MB-231 cells [4] is “efficiently taken up by cells”. Moreover, in the data set with MDA-MB-231 cells [4], the subcellular localisation entry was “primarily to the cytoplasm”.

Turning to `O=S(=O)(O)CCCOc1ccc(C2=[N+]3C(=Nc4c(-c5ccccc5)cc(-c5ccc(OCCCS(=O)(=O)O)cc5)n4[B-]3(F)F)C(c3ccccc3)=C2)cc1` [Compound 17], the λmax abs. in data set [1] (CHCl3, 1 × 10^−6 M) was 694 nm; in data set [1] (CHCl3, 1 × 10^−6 M, as tetra-butylammonium salt), 694^e nm; in data set [1] (DMEM, 1 × 10^−6 M), 694 nm; in data set [1] (MeOH, 1 × 10^−6 M), 687 nm; in data set [1] (PBS/BSA, 1 × 10^−6 M) it was 692 nm. In data set [3] (CHCl3), the Φf was determined as 0.31. The λmax emiss. was 726 nm in data set [3] (CHCl3), 728 nm in data set [3] (DMEM) and 718 nm in data set [3] (PBS/BSA (4×10^−4 M BSA)). Also, in the data set with MDA-MB-231 cells [4], the cellular uptake result is “efficiently taken up by cells”. Besides, the subcellular localisation result in the data set with MDA-MB-231 cells [4] is listed as “primarily to the cytoplasm”.

In the case of `CCN(CC)Cc1ccc(C2=CC(c3ccc(OC)cc3)=[N+]3C2=Nc2c(-c4ccc(CN(CC)CC)cc4)cc(-c4ccc(OC)cc4)n2[B-]3(F)F)cc1` [Compound 20], the ε in data set [1] (CHCl3, at 691 nm) is given as 76,000 Lmol^−1 cm^−1. In data set [1] (CHCl3), this molecule yielded a λabs of 691 nm.

In the case of `CC[N+](C)(CC)Cc1ccc(C2=CC(c3ccc(OC)cc3)=[N+]3C2=Nc2c(-c4ccc(C[N+](C)(CC)CC)cc4)cc(-c4ccc(OC)cc4)n2[B-]3(F)F)cc1.[I-].[I-]` [Compound 21], the λmax abs. in data set [1] (CHCl3, 1 × 10^−6 M) is given as 702 nm; in data set [1] (DMEM, 1 × 10^−6 M), 709 nm; in data set [1] (MeOH, 1 × 10^−6 M) it was 702 nm; in data set [1] (PBS/BSA, 1 × 10^−6 M), 706 nm. Moreover, in data set [3] (CHCl3), the Φf was found to be 0.22. The λmax emiss. was 735 nm in data set [3] (CHCl3), 737 nm in data set [3] (DMEM), 732 nm in data set [3] (MeOH) and 730 nm in data set [3] (PBS/BSA (4×10^−4 M BSA)). Besides, the “cellular uptake / binding” value in the data set with E. coli cells and in the data set with S. aureus cells was “sufficient for cellular uptake” in each case.
